Test results reported in article PMC9166630, “SAR Probing of KX2-391 Provided Analogues With Juxtaposed Activity Profile Against Major Oncogenic Kinases” (Frontiers in Oncology, 2022).

Columns and labels:
CTK = assay: PamChip tyrosine kinase microarray, CTK; assay type: biochemical, human; conditions: 4e 0.1 µM, HL60 lysate
Procedure: (§1) The changes in kinase activities induced by treatment with 4e were monitored within the HL60 cell lines using PamGene’s (Hertogenbosch, Netherlands) PamChip® peptide microarray profiler, which quantifies the activities of 144 tyrosine kinases (YK) ([29], [30]) (Figure 7). Results are provided as a log fold change (LFC) heatmap and Mean Kinase Statistic. From the LFC it is apparent that compound 4e, at a concentration of 0.1 µM, induced sizable changes to the activity of several kinases within the cell signaling YK profile (Figure 7A).
(§2) An Upstream Kinase tool was used to generate a putative list of kinases responsible for phosphorylating the phospho-sites on the PamChip (Figure 7B) ([31]). It is an interpretation and is highly dependent on the contents of the underlying phosphorylation databases. A Kinase Score was used for ranking kinases based on their significance and specificity in terms of the set of peptides used for the corresponding kinase. Kinase Statistics indicates the overall change of the peptide set that represents the kinase. Kinase statistics value <0 indicates lower kinase activity in the compound spiked lysate and vice versa ([32], [33]). Table 5 lists the 20 most changed kinases within treated HL60 cell lysates by 0.1 μM 4e, ranked according to their Kinase Score.
(§3) The compound 4e was spiked into HL60 cell lysate at different concentrations (0.001, 0.01, 0.1, 1, 10 and 50 μM). In addition, DMSO was also spiked in HL60 lysate at low concentration (2% v/v) as control. Samples were profiled on PamGene’s Tyrosine Kinase (PTK) arrays in technical replicates, covering a total of 196 phosphorylation sites. Frozen HL60 cultured cell pellet was sent to PamGene. At PamGene, cells were lysed using a lysis buffer and proteases inhibitors cocktail. Protein concentration was measured using standard Bradford assay as per PamGene SOPs. These lysates were further used for generating the PTK activity profiles. For spiking, 4e was received as powder form and dissolved in DMSO at PamGene facility followed by storing at -20°C in small aliquots. PamGene used its in-house bioinformatics toolbox in combination with other methods to generate hypotheses of signaling pathways.

purified bovine tubulin = assay: Tubulin polymerization assay (turbidimetric); assay type: biochemical; conditions: theoretical concentration 10 µM, OD 340 nm, 60 min
Procedure: The effect of compound 4e on tubulin polymerization was investigated using the cell-free assay which assesses the assembly of purified bovine tubulin by a turbidometric method (Figure 5). Tubulin polymerization results in increased turbidity, which is measured as an increase in the optical density (OD).
Figure 5 Tubulin polymerization assay for compound 4e at 10 µM compared to paclitaxel (10 µM) and KX2-391 (10 µM) as references, while DMSO (1% v/v) was used as a vehicle control. Purified bovine tubulin and GTP were mixed in a 96-well plate. The polymerization reaction was initiated by warming the solution from 4°C to 37°C. The effect on tubulin assembly was monitored by measuring the optical density (OD) at 340 nm every 30 seconds over 60 min period. The results represent the mean for three separate experiments.
The assembly of purified bovine tubulin was monitored using the Tubulin Polymerization Assay kit, BK006 (Cytoskeleton Inc., Denver, CO, USA). The assay was carried out in accordance with the manufacturer’s instructions in the assay kit manual using the standard assay conditions. The values reported represent the average values from two independent assays. […] Therefore, tubulin assembly was monitored turbidimetrically at 340 nm at 37°C in a Spectramax 340 PC spectrophotometer (Molecular Devices, Sunnyvale, CA, USA). The absorbance was measured at 30 s intervals for 60 min.

[1] = tested on: N87 (stomach) cancer cells; assay: SRB cytotoxicity assay, N87; assay type: cell-based; conditions: Homo sapiens, 72 h, maximum tested concentration 50 µM, read-out: IC50 ± SEM, N87
Procedure: MCF7 (breast) or N87 (stomach) cancer cells were grown in Roswell Park Memorial Institute-1640 (RPMI-1640) medium (Thermo Fisher Scientific, Inc; Waltham, MA, USA), supplemented with 10% heat inactivated fetal bovine serum (FBS), 50 units/mL of penicillin and […] of streptomycin and maintained at 37°C in a humidified atmosphere containing 5% CO2. The cells were maintained as “monolayer culture” by serial subculturing.
Cytotoxicity was determined using Sulforhodamine B (SRB) method as previously described by Skehan et al. ([66]). Exponentially growing MCF7 and N87 cells were collected using 0.25% Trypsin-EDTA and were then seeded in 96-well plates at a density of 1000-2000 cells/well in 10% FBS and penicillin/streptomycin supplemented RPMI-1640 medium. After 24 h, cells were treated with different concentrations of test compounds and incubated for 72 h at 37°C in a humidified atmosphere containing 5% CO2. Next, the cells were fixed by adding trichloroacetic acid (TCA, 10% final conc. in wells) directly to the wells and incubated for 1 h at 4°C, then cells were washed with distilled water 5 times to remove excess TCA, media, serum proteins, and metabolites, followed by air drying. After that, the fixed cells were stained with 0.4% SRB dissolved in 1% acetic acid for 10 min at room temperature, and excess stain was removed by quickly rinsing with 1% acetic acid. The residual acetic acid was removed completely by air drying the plates for 24 h, and the dye was solubilized with Tris buffer (pH= 7.4, 10 mM) for 5 min on a shaker at 1600 rpm. The optical density (OD) of each well was measured spectrophotometrically at 564 nm with an ELISA microplate reader (ChroMate-4300, FL, USA). The IC50 values (concentration of drug resulting in 50% reduction in cell survival) were calculated according to the equation for Boltzman sigmoidal concentration–response curve using the nonlinear regression fitting models (Graph Pad, Prism Version 5).

Ros = target: T1, Ros (Homo sapiens, UniProt P08922); assay: PamChip tyrosine kinase microarray, Ros; assay type: biochemical; conditions: 4e 0.1 µM, HL60 lysate
T1 construct: endogenous in cells; host or cells: HL60 lysate
Procedure: as §1, §2, §3

T1 sequence (P08922 28-2347): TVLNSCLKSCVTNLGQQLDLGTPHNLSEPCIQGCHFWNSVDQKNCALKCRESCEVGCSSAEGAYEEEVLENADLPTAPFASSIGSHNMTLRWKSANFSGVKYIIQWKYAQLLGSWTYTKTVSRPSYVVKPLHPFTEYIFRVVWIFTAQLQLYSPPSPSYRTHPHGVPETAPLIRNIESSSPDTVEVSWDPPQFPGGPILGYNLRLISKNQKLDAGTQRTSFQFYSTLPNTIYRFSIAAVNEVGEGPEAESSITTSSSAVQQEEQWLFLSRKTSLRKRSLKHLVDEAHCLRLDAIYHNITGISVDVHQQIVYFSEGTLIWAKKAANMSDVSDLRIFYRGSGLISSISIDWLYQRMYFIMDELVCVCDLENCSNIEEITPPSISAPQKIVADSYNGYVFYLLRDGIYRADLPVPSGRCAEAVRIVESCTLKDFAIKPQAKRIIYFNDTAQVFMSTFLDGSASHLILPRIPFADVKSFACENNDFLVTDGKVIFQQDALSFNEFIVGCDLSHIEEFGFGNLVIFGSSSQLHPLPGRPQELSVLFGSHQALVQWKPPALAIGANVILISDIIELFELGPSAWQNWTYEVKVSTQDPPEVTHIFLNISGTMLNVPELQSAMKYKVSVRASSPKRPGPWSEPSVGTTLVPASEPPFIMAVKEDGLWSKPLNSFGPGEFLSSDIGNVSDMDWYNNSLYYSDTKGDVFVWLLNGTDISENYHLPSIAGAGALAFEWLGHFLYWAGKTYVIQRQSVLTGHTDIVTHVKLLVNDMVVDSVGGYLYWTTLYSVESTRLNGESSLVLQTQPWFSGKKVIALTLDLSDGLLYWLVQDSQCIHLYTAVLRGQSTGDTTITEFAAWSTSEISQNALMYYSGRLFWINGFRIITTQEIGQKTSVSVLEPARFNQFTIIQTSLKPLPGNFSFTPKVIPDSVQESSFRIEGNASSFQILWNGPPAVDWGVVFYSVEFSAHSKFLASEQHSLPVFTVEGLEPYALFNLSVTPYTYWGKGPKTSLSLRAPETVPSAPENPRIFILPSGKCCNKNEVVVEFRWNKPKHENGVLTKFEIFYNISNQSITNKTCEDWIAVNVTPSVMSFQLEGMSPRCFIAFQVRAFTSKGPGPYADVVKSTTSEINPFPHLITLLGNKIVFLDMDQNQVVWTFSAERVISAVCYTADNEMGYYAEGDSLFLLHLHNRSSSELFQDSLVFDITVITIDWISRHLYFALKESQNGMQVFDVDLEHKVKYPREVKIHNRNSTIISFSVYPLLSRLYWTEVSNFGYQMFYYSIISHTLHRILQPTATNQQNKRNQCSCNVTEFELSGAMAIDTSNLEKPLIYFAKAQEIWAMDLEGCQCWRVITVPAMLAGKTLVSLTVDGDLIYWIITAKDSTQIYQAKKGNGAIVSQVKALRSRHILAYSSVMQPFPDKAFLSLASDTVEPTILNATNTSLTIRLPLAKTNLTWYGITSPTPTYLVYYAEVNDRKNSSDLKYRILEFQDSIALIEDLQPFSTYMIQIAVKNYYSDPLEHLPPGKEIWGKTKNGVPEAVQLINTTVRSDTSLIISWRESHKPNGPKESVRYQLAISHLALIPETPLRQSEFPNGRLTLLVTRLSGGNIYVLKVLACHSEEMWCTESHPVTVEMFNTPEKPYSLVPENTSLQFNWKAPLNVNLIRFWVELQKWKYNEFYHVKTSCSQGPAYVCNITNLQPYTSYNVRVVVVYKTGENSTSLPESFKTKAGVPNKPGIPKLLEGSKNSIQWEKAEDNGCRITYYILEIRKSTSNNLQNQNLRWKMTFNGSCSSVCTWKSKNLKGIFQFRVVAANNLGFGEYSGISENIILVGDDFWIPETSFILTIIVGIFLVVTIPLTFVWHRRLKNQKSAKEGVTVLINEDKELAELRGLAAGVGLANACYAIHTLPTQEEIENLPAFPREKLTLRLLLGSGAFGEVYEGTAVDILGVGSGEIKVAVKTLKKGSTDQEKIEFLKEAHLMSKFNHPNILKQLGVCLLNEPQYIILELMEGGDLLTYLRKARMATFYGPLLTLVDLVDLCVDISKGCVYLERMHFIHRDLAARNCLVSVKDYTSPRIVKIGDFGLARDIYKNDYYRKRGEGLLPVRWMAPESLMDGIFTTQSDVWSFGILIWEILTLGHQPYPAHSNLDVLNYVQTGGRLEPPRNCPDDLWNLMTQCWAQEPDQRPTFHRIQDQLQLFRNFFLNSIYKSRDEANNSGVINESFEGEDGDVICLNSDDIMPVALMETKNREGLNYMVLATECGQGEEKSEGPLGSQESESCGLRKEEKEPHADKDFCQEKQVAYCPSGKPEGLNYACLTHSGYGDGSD

Which “Mean Final Score” value (CTK) does the source give for O=C(Cc1ccc(NC(=O)c2cccc(Cl)c2)cc1)NCc1ccccc1 [Compound 4e, N-(4-(2-(benzylamino)-2-oxoethyl)phenyl)-3-chlorobenzamide] here?
Its value is 1.5802.

And the “Mean Kinase Statistic” value (CTK)?
The value was -0.4874.

What about the “Mean Significance Score” value (CTK) of the same compound?
The value was 1.1881.

And the “Mean Specificity Score” value (CTK)?
Its value is 0.3920.

What about the “effect on tubulin polymerization” value (purified bovine tubulin) of the same compound?
Its value is “did not affect the tubulin polymerization”.

What about the IC50 [1] of the same compound?
The IC50 was 5.28 ± 0.91 µM.

And the “Mean Final Score” value (Ros)?
The value was 2.0991.

What about the “Mean Kinase Statistic” value (Ros) of the same compound?
Its value is -0.9704.

And the “Mean Significance Score” value (Ros)?
The value was 0.9578.

And the “Mean Specificity Score” value (Ros)?
The value was 1.1413.
